The subject of test [1] is MHCC97H and SMMC 7721 cells. Description: CCK8 cell viability screen of mulberry active substances. The class given is cell-based, human. To be noted: 10 μM, 48 h. The method, then: The CCK8 assay is used to investigate the effect of compounds on cell viability by measuring the amount of formazan dye. Firstly, 8000 cells were inoculated into each well of the 96-well plate with three replicates per condition. At the same time, add the corresponding mulberry active substances. After 48 h of incubation, 20 μL of the Cell Counting Kit-8 (CCK8) reagent (Beyotime, Shanghai, China) was added to each well. After being cultured under 37 °C and 5% carbon dioxide for 2–3 h, the absorbance was measured at 450 nm.

The subject of test [2] is MHCC97 H cells. The test can be described thus: MTT IC50 determination in MHCC97 H. The format is cell-based, human. To be noted: MTT method, read-out: IC50 in MHCC97 H (screen). The procedure:
(§1) Cell viability was assessed using MTT experiments. Cells, together with KA, were seeded into 96-well plates at a density of 2000 cells per well with three replicates per condition. DMSO was used as a control. At designated time points, 20 μL of MTT (Sigma, St. Louis, MO, USA) solution was added to each well and incubated for 3 h. After removing the culture medium, 200 μL of DMSO was added to dissolve the formazan crystals. The absorbance was then measured using a microplate reader at a wavelength of 560 nm.

Test [3] has as its system normal human liver cells (L-O2). The test can be described thus: MTT IC50 determination in normal liver cells. Conditions: L-O2, MTT method. The format is cell-based. The procedure: as §1
On the technique in general: Formazan colour is commonly taken as a measure of viable cells.

In test [4] the test system is MHCC97 H cells. The test can be described thus: Transwell migration screen of selected compounds. To be noted: compounds at an IC50 concentration. The class given is cell-based, human. The procedure: (§2) The Transwell assay measured the migration and invasion of cells by calculating the number of cells that passed through the material. Prior to the Transwell migration assay, cells were serum-starved in FBS-free culture medium for 24 h. The cells were then detached using trypsin, washed 1–2 times with PBS, and resuspended in DMEM. Approximately 50,000–100,000 cells were seeded into the upper chamber of the Transwell insert. The lower chamber was filled with 600 μL of complete medium containing the test compound. The Transwell system was incubated for 12 h under standard culture conditions (37 °C, 5% CO2). After incubation, the migrated cells on the lower membrane surface were fixed with 4% paraformaldehyde (PFA) and stained with 0.1% crystal violet. Non-migrated cells remaining in the upper chamber were carefully removed with a cotton swab. Finally, the stained cells were visualized under a microscope. If matrix gel was needed, it should be added according to the instructions (Beyotime, Shanghai, China) before the cells were seeded.

The test system of test [5] is HCC cells (MHCC97 H and SMMC 7721). The test can be described thus: Transwell migration (without Matrix-Gel) and invasion (with Matrix-Gel) assay. Conditions: Sorafenib 10 μM alone or 10 μM KA and 10 μM Sorafenib, 48 h. The format is cell-based, human. The procedure: as §2, with “The Transwell system was incubated for 12 h under standard culture conditions (37 °C, 5% CO2).” left out

For test [6], the system named is MHCC97 H cells. The arrangement: method as in MCE website (https://www.medchemexpress.cn/). Conditions: ref MCE website (https://www.medchemexpress.cn/); read-out: IC50 of Sorafenib in MHCC97 H; cited from earlier work.
In the next test the test system is SMMC 7721 cells. The arrangement: method as in MCE website (https://www.medchemexpress.cn/). Conditions: ref MCE website (https://www.medchemexpress.cn/); read-out: IC50 of Sorafenib in SMMC 7721; cited from earlier work.
For the test “YWHAB (tyrosine …)”, the target named is T1, YWHAB (tyrosine 3-monooxygenase/tryptophan 5-monooxygenase activation protein beta), endogenous in HCC cells (human (endogenous in MHCC97 H and SMMC 7721)), P31946.
T1 chain: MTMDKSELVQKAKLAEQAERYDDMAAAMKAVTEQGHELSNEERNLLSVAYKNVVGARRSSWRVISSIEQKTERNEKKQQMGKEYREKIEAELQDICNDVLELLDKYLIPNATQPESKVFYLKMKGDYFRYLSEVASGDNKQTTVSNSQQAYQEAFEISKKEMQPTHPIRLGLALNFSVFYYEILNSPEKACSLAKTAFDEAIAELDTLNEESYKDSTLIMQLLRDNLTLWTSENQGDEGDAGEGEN
Description: native gel or EMSA; Blue native PAGE of cell lysates (IP cell lysis buffer, Coomassie G-250), then immunoblot; cells treated with KA or DMSO (less dimer with KA). To be noted: remark: other sources report otherwise.

In a further test the target is T2, FLAG-YWHAB, P31946.
T2 chain: T1 chain
The test is described as above. Conditions: remark: other sources report otherwise.

Read-outs that look alike come from different tables or passages of the source. Where only a bound is given, the exact number is not on record here.

For the molecule `Cc1cc2c3c(c1)-c1c(O)cc(-c4cc5ccc(O)cc5o4)cc1OC3(c1ccc(O)cc1O)Oc1cc(O)ccc1-2` (centres unmarked) [Albanol B, albanol B], the “viability of HCC cells (CCK8)” value in test [1] is recorded as “significantly inhibited the viability of HCC cells”. The IC50 – broadly, the concentration at which inhibition is half-maximal – in the test on MHCC97 H cells [2] was less than 20 µM. In [3], the “IC50 in normal liver cells” value is “relatively low”. Also, in the test with MHCC97 H cells [4], the “migration of MHCC97 H (Transwell)” value is “significantly inhibited the migration of MHCC97 H”.
On to `CC(C)=CCc1c(-c2ccc(O)cc2O)oc2c([C@H]3C=C(C)C[C@@H](c4ccc(O)cc4O)[C@@H]3C(=O)c3ccc(O)cc3O)c(O)cc(O)c2c1=O` [Kuwanon G, kuwanon G], for which, in the test with MHCC97 H cells [2], the IC50 was less than 20 µM.
In the case of `CC(C)=CCC/C(C)=C/Cc1c(O)ccc(-c2oc3cc(O)cc(O)c3c(=O)c2CC=C(C)C)c1O` [L8-06, 3'-geranyl-3-prenyl-2',4',5,7-tetrahydroxyflavone], the IC50 in the test on MHCC97 H cells [2] (Homo sapiens, MHCC97H) is less than 20 µM.
Take `CC(C)=CCc1c(-c2ccc(O)cc2O)oc2c3c(cc(O)c2c1=O)OC(C)(C)C=C3` [Morusin]: the IC50 in the test on MHCC97 H cells [2] (Homo sapiens, MHCC97H) is less than 20 µM.
With `CC(C)(O)CCc1c(-c2ccc(O)cc2O)oc2c3c(cc(O)c2c1=O)OC(C)(C)C=C3` [Morusinol], in the test with MHCC97 H cells [2] (Homo sapiens, MHCC97H), the IC50 was less than 20 µM.
Take `CC(C)=CCc1c(-c2ccc(O)cc2O)oc2c(CC=C(C)C)c(O)cc(O)c2c1=O` [Mulberrin]: in the test on MHCC97 H cells [2], the IC50 was less than 20 µM.
Regarding `CNC(=O)c1cc(Oc2ccc(NC(=O)Nc3ccc(Cl)c(C(F)(F)F)c3)cc2)ccn1` [Sorafenib], the “HCC cell migration/invasion (Transwell, polycarbonate membrane or Matrigel)” value in test [5] is given as “no significant effect”. Moreover, the 50% inhibitory concentration (IC50) with MHCC97 H cells [6] and in the test on SMMC 7721 cells was approximately 10 µM in each case.
As for sanggenol L, in [1], the “viability of HCC cells (CCK8)” value was “significantly inhibited the viability of HCC cells”. Moreover, the IC50 in the test with MHCC97 H cells [2] is less than 20 µM. Further, in the test with MHCC97 H cells [4], the “migration of MHCC97 H (Transwell)” value is on record as “significantly inhibited the migration of MHCC97 H”.
Take sanggenone C: the “viability of HCC cells (CCK8)” value in [1] was “significantly inhibited the viability of HCC cells”. Further, the IC50 in the test with MHCC97 H cells [2] was less than 20 µM.
For the molecule sanggenone D, the IC50 with MHCC97 H cells [2] was less than 20 µM.

B1: YWHAB (tyrosine 3-monooxygenase/tryptophan 5-monooxygenase activation protein beta), endogenous in HCC cells, P31946 1-246 (natural protein)
chain: T1 chain
For B1, the stoichiometry N (as a rule, a count of units in the complex or per binding partner) with YWHAB (tyrosine …) is 2.

B2: FLAG-YWHAB, P31946 1-246 (natural protein)
chain: T1 chain
For the molecule B2, the stoichiometry N with FLAG-YWHAB, P31946 is 2.

The values above are taken from publication PMC12523843, “Kuwanon A Targeted YWHAB in Hepatocellular Carcinoma Cells to Inhibit the Raf/MEK/ERK Signaling Pathway” (Cells, 2025).
